# Experimental data as given in article PMC3805573, “Methylglyoxal Evokes Pain by Stimulating TRPA1” (PLoS ONE, 2013).
# Experiments:
# [1] = tested on: MDCK cells; experiment: [Ca2+]i-measurements in MDCK cells; assay type: cell-based, Canine
# Procedure: MDCK cells were grown in DMEM (Invitrogen) supplemented with 5% fetal bovine serum, 100 U/ml penicillin and 100 µg/ml streptomycin. […] The experiments were performed in a physiological saline solution containing (in mM) 140 NaCl, 5 KCl, 10 glucose, 10 HEPES, 2 CaCl2, and 1 MgCl2, buffered to pH 7.4 with NaOH. Compounds were applied to cells by local continuous microperfusion of solution through a fine tube placed in close proximity of the cells studied. […] Analyses of emission intensity ratios at 340 nm/380 nm excitation (R, in individual cells) were performed using the ImageMaster suite of software. […] Cells grown in 96 well black walled plates (Costar, Tewksbury, MA) were loaded with Fura 2-AM in the presence of 1 mM probenecid at 37°C for 1–1.5 hours and assays were carried out at 25°C. Basal emission ratios (340 nm/380 nm) were measured and changes in ratio determined at various times after compound addition.
# [2] = tested on: human TRPA1 C621S, C641S or C665S; experiment: [Ca2+]i-responses of human TRPA1 point mutants C621S, C641S, C665S; assay type: cell-based; settings: human TRPA1 single point mutants vs wildtype
# Procedure: (§1) Untransfected CHO cells and CHO cells expressing mouse or human TRPA1 were grown in MEM Glutamax or AQ medium supplemented with penicillin (100 U/ml), streptomycin (100 µg/ml), and FCS (10%). Plasmids encoding mutated TRPA1 channels were kindly provided by Dr. Ardem Patapoutian. All media, serum and antibiotics were from Invitrogen (Paisley, UK) or Sigma (Poole, UK).
# Cells were loaded with 2 µM Fura-2 AM (Molecular Probes, Paisley, UK) in the presence of 1 mM probenecid for ∼1 hr. The experiments were performed in a physiological saline solution containing (in mM) 140 NaCl, 5 KCl, 10 glucose, 10 HEPES, 2 CaCl2, and 1 MgCl2, buffered to pH 7.4 with NaOH. Compounds were applied to cells by local continuous microperfusion of solution through a fine tube placed in close proximity of the cells studied. Images of a group of cells were captured every 2 sec using 340 and 380 nm excitation wavelengths with emission measured at 520 nm with a microscope based imaging system (PTI, New Jersey). […]
# Changes in intracellular calcium ([Ca^2+]i) in response to agonists were determined in TRPA1 expressing CHO cells and MDCK cells using a Flexstation 3 (Molecular Devices). […] Basal emission ratios (340 nm/380 nm) were measured and changes in ratio determined at various times after compound addition.
# [3] = biological target: T1, mTRPA1 K712Q (Mus musculus, UniProt Q8BLA8, K712Q); experiment: [Ca2+]i-responses of mTRPA1 K712Q in CHO cells; assay type: cell-based; settings: MG 2 mM
# T1 construct: expressed in transfected cells; host or cells: CHO cells
# Procedure: as §1
# (§2) Cells were loaded with 2 µM Fura-2 AM (Molecular Probes, Paisley, UK) in the presence of 1 mM probenecid for ∼1 hr. The experiments were performed in a physiological saline solution containing (in mM) 140 NaCl, 5 KCl, 10 glucose, 10 HEPES, 2 CaCl2, and 1 MgCl2, buffered to pH 7.4 with NaOH. Compounds were applied to cells by local continuous microperfusion of solution through a fine tube placed in close proximity of the cells studied. Images of a group of cells were captured every 2 sec using 340 and 380 nm excitation wavelengths with emission measured at 520 nm with a microscope based imaging system (PTI, New Jersey). Analyses of emission intensity ratios at 340 nm/380 nm excitation (R, in individual cells) were performed using the ImageMaster suite of software.
# [4] = tested on: beta cells; experiment: [Ca2+]i-responses in pancreatic beta cells; assay type: cell-based, mice; settings: MG 0.5 mM (Fig. 7A)
# Procedure: Mouse islets of Langerhans were isolated from the exocrine pancreas by collagenase digestion (1 mg/ml, type XI, Sigma, Poole, UK). Islets were dissociated by 15 min incubation in trypsin (0.5%, Sigma, Poole, UK) followed by trituration through a flame polished glass Pasteur pipette and the islet cells were seeded on glass cover slips.
# as §2
# T1 sequence (Q8BLA8 whole entry K712Q): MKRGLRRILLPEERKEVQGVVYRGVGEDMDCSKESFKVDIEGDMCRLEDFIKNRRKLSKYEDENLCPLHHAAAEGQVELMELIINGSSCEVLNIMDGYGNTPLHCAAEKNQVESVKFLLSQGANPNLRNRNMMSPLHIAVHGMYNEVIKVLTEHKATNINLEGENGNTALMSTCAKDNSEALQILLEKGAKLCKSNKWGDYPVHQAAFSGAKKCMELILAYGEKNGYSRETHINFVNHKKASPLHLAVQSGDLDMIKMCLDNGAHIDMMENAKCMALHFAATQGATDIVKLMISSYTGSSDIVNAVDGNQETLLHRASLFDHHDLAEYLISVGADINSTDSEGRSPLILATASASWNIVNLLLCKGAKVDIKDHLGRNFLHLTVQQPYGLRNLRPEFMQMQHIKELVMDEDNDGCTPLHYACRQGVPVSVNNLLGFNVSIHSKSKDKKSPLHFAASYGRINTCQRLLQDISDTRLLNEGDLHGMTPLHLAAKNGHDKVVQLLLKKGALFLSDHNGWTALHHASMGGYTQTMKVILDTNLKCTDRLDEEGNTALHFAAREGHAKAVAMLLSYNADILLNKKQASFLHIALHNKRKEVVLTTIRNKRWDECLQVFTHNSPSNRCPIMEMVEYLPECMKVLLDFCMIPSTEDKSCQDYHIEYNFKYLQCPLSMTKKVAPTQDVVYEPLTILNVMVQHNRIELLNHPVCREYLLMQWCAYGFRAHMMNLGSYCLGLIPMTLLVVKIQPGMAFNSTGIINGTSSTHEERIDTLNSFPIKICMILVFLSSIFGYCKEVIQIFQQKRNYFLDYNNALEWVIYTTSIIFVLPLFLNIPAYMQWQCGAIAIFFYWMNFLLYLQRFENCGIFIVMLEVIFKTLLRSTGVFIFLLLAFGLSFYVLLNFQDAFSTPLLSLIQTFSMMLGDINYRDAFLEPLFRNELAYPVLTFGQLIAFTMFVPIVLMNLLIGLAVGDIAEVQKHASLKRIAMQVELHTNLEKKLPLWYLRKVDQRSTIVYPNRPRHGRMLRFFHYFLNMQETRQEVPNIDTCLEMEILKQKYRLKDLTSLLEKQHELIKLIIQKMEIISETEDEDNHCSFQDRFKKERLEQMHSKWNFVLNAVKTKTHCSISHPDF
compound,measurement,setting,value
"CC(=O)C=O [MG, methylglyoxal]",[Ca2+]i-influx response,[1]; 5 mM,evoked [Ca^2+]i-influx responses
same,EC50,"[1]; read-out: EC50, [Ca2+]i-responses",2.2 ± 0.4 mM
same,"effect of substitutions C621S, C641S, C665S on potency of MG",[2],None of these amino acid substitutions affected the potency of MG significantly
same,amplitude of [Ca2+]i-responses in mTRPA1 K712Q compared to WT mTRPA1,[3],significantly reduced
same,[Ca2+]i-responses in beta cells,[4],evoked [Ca^2+]i-responses in a subpopulation of tolbutamide sensitive beta cells
same,"number of MG sensitive cells and response amplitude, Trpa1+/+ vs Trpa1-/- cultures",[4],similar
